Experiment [1] relates to 5-LO. As to the kind of experiment: Test c) ex vivo assay: administration of test compound, blood collection, A23187 challenge, radioimmunoassay of LTB4. The conditions noted are these: oral. Type of experiment: in vivo. The procedure: c) An ex vivo assay system, which is a variation of test b) above, involving administration of a test compound (usually orally as the suspension produced when a solution of the test compound in dimethylsulphoxide is added to carboxymethylcellulose), blood collection, heparinisation, challenge with A23187 and radioimmunoassay of LTB4 and TxB2. This test provides an indication of the bioavailability of a test compound as an inhibitor of 5-LO or cyclooxygenase.

Experiment [2] relates to 5-LO. As to the kind of experiment: Test b) in vitro heparinised human blood challenged with A23187, LTB4 radioimmunoassay (5-LO). Type of experiment: cell-based. To be noted: A23187 challenge. The procedure: b) An in vitro assay system involving incubating a test compound with heparinised human blood, prior to challenge with the calcium ionophore A23187 and then indirectly measuring the inhibitory effects on 5-LO by assaying the amount of LTB4 using the specific radioimmunoassay described by Carey and Forder (F. Carey and R. A. Forder, Brit. J. Pharmacol. 1985, 84, 34P) which involves the use of a protein-LTB4 conjugate produced using the procedure of Young et alia (Prostaglandins, 1983, 26(4), 605-613). The effects of a test compound on the enzyme cyclooxygenase (which is involved in the alternative metabolic pathway for arachidonic acid and gives rise to prostaglandins, thromboxanes and related metabolites) may be measured at the same time using the specific radioimmunoassay for thromboxane B2 (TxB2) described by Carey and Forder (see above). This test provides an indication of the effects of a test compound against 5-LO and also cyclooxygenase in the presence of blood cells and proteins. It permits the selectivity of the inhibitory effect on 5-LO or cyclooxygenase to be assessed.

Experiment [3] concerns 5-LO. As to the kind of experiment: Test g) liberation of LTB4 induced by zymosan within an air pouch in male rats. Type of experiment: in vivo. The conditions noted are these: oral, rat zymosan air pouch, 3 hours. The protocol:
g) An in vivo system involving measuring the effects of a test compound administered orally against the liberation of LTB4 induced by zymosan within an air pouch generated within the subcutaneous tissue of the back of male rats. The rats are anaesthetised and air pouches are formed by the injection of sterile air (20 ml). A further injection of air (10 ml) is similarly given after 3 days. At 6 days after the initial air injection the test compound is administered (usually orally as the suspension produced when a solution of the test compound in dimethylsulphoxide is added to hydroxypropylmethylcellulose), followed by the intrapouch injection of zymosan (1 ml of a 1% suspension in physiological saline). After 3 hours the rats are killed, the air pouches are lavaged with physiological saline, and the specific radioimmunoassay described above is used to assay LTB4 in the washings. This test provides an indication of inhibitory effects against 5-LO in an inflammatory milieu.

In the case of `COC1(c2ccc3c(c2)OC(c2ccc4ccccc4c2)O3)CCOCC1` (stereo not drawn) [5-(4-methoxytetrahydropyran-4-yl)-2-(naphth-2-yl)benzo-1,3-dioxole], the figures for the median effective dose (ED50) in experiment [1] and in experiment [3] were 5 mg/kg and < 3 mg/kg, respectively. In experiment [2], the IC50 stood at 300 nM.

Usually ED50 stands for the dose at which the effect has come halfway, by size or by number of responders. The term IC50 denotes the concentration that gives 50% inhibition.

(Values after patent US5126365A, “Bicyclic derivatives” (Imperial Chemical Industries PLC, priority 1989, dated 1992).)
